The test system of one series is IGROV-1. As to the kind of experiment: Cytotoxicity against human IGROV-1 cells assessed as inhibition of cell growth incubated for 5 days by CellTiter-Glo luminescence assay. In kind it is functional, cell-based. The note with it: IGROV-1, 120 h. A general note: ATP-based viability assays read luminescence as a measure of living cells.
Series [1] can be described thus: Binding affinity to biotinylated hairpin DNA (unknown origin) assessed as binding constant by SPR analysis. (In general: In SPR one partner is held on a chip, and binding of the other changes the refractive index at the surface.)
Series [2] is described as follows: Stability in mouse plasma assessed as half-life at 1 uM measured upto 1440 min by UHPLC-MS/MS analysis. In kind it is ADME, cell-free.
A further series relates to EBC-1. Description: Cytotoxicity against human EBC-1 cells assessed as inhibition of cell growth incubated for 5 days by CellTiter-Glo luminescence assay. In kind it is functional, cell-based. The note with it: EBC-1, 120 h.
A further series has as its system Clupeidae. As to the kind of experiment: Binding affinity to Herring sperm DNA assessed as melting temperature by differential scanning calorimetric analysis. On the technique in general: Differential scanning calorimetry records heat flow against a reference as temperature is scanned.
A short description of series [3]: Retention time of the compound by HPLC analysis. The series is classed as physicochemical.
The next series concerns OVCAR-3. Description: Cytotoxicity against human OVCAR-3 cells assessed as inhibition of cell growth incubated for 5 days by CellTiter-Glo luminescence assay. In kind it is functional, cell-based. The note with it: OVCAR-3, 120 h.
A short description of series [4]: Stability in mouse plasma at 1 uM measured upto 1440 min by UHPLC-MS/MS analysis. The note with it: 24 h. In kind it is ADME, cell-free.
The nature of series [5]: Binding affinity to biotinylated hairpin DNA (unknown origin) at 0.312 to 5 uM by SPR analysis. The conditions noted are these: dose 0.312-5 µM.
Series [6] is described as follows: Stability in mouse plasma assessed as parent compound remaining measured after 24 hrs by LC-MS analysis. The note with it: read-out: Stability. The series is classed as ADME, cell-free.

Here are results for nine molecules from ChEMBL document CHEMBL5338828, “Structure-Activity Relationships of Bis-Intercalating Peptides and Their Application as Antibody-Drug Conjugate Payloads” (J Med Chem, 2023).

The source made the active and inactive calls. The rule behind the calls is not given here. Where a SMILES comes first, the peptide text is derived from it. Bridges are numbered along the chain shown (N, C = ends). Roman numbers before positions name the chains, in order. [ ]: non-standard residue; d: D form. The star is where a group is joined. Quinaldoyl(3-OH) = O=C(c1nc2ccccc2cc1O)*; NMeV = CN[C@H](C(=O)O)C(C)C; Pip = O=C(O)[C@@H]1CCCCN1; dDap = NC[C@@H](N)C(=O)O A value given as a limit tells only on which side of the number the result lay.

Broadly, the IC50 is the concentration at which inhibition is half-maximal. By Kd is commonly meant a measure of binding affinity in units of concentration. What is called half-life is how long it takes for the measured level to halve.

On to `CC(C)[C@H]1C(=O)NC[C@@H](NC(=O)c2nc3ccccc3cc2O)C(=O)N2CCCC[C@H]2C(=O)NCC(=O)N(C)CC(=O)N(C)[C@@H](C(C)C)C(=O)OC[C@@H](NC(=O)c2nc3ccccc3cc2O)C(=O)N2CCCC[C@H]2C(=O)NCC(=O)N(C)CC(=O)N1C`, for which the IC50 in the series with IGROV-1 came out at 0.0012 µM; in the series with EBC-1 it was 0.0006 µM; in the series with OVCAR-3, 0.0006 µM. Moreover, the dissociation constant (Kd) in [1] was found to be 0.08 µM. Besides, the half-life at 1 µM in series [2] was determined as 12 h. Also, in the series on Clupeidae, the Tm was 97 °C. In addition, the Retention_time in [3] was determined as 19.6 min.
Consider `CCOC(=O)[C@H](CCc1ccccc1)N[C@@H](C)C(=O)N1CCC[C@H]1C(=O)O` [ENALAPRIL], for which the half-life at 1 µM in series [2] turned out to be 2.83 h.
Turning to `CC(C)[C@H]1COC[C@@H](NC(=O)c2nc3ccccc3cc2O)C(=O)N2CCCC[C@H]2C(=O)NCC(=O)N(C)CC(=O)N(C)[C@@H](C(C)C)C(=O)NC[C@@H](NC(=O)c2nc3ccccc3cc2O)C(=O)N2CCCC[C@H]2C(=O)NCC(=O)N(C)CC(=O)N1C`, the IC50 in the series with IGROV-1 was found to be 0.0064 µM; in the series on EBC-1 it was 0.0054 µM; with OVCAR-3, 0.0029 µM. In addition, the equilibrium dissociation constant (Kd) in series [1] was found to be 0.3 µM. Besides, in series [4], the Stability entry is “Stable”. Besides, the Tm in the series on Clupeidae was determined as 92 °C. The molecule also had a Retention_time in series [3] of 18.4 min.
Regarding `CC(C)[C@H]1C(=O)NC[C@@H](NC(=O)c2nc3ccccc3cc2O)C(=O)N2CCCC[C@H]2C(=O)NCC(=O)N(C)CC(=O)N(C)[C@@H](C(C)C)C(=O)NC[C@@H](NC(=O)c2nc3ccccc3cc2O)C(=O)N2CCCC[C@H]2C(=O)NCC(=O)N(C)CC(=O)N1C`, the half-inhibitory concentration (IC50) is 0.039 µM in the series with IGROV-1, 0.046 µM in the series with EBC-1 and 0.018 µM in the series with OVCAR-3. Moreover, in series [1], the Kd came to 3.3 µM. Moreover, the Stability result in series [4] is “Stable”. Besides, in the series with Clupeidae, the Tm is 88 °C. Moreover, the Retention_time in series [3] is 17.1 min.
For the molecule `CC(C)[C@H]1C(=O)NCC(=O)N(C)CC(=O)N2CCCC[C@H]2C(=O)NC[C@@H](NC(=O)c2nc3ccccc3cc2O)C(=O)N(C)[C@@H](C(C)C)C(=O)NCC(=O)N(C)CC(=O)N2CCCC[C@H]2C(=O)NC[C@@H](NC(=O)c2nc3ccccc3cc2O)C(=O)N1C`, the result in series [5] was inactive. The Retention_time in series [3] is on record as 16.8 min.
For `CC(C)[C@H]1C(=O)NC[C@@H](NC(=O)c2nc3ccccc3cc2O)C(=O)N2CCCC[C@H]2C(=O)NCC(=O)NCC(=O)N(C)[C@@H](C(C)C)C(=O)NC[C@@H](NC(=O)c2nc3ccccc3cc2O)C(=O)N2CCCC[C@H]2C(=O)NCC(=O)NCC(=O)N1C` (I: {Quinaldoyl(3-OH)}-[dDap][Pip]GG[NMeV] / II: {Quinaldoyl(3-OH)}-[dDap][Pip]GG[NMeV]; amide I:1-II:C, I:C-II:1), in that order: “inactive” and 15.1 min.
Take `CC(C)[C@H]1C(=O)OC[C@@H](NC(=O)c2nc3ccccc3cc2O)C(=O)N2CCCC[C@H]2C(=O)NCC(=O)N(C)CC(=O)N(C)[C@@H](C(C)C)C(=O)OC[C@@H](NC(=O)c2nc3ccccc3cc2O)C(=O)N2CCCC[C@H]2C(=O)NCC(=O)N(C)CC(=O)N1C`: the IC50 came out at 0.0016 µM in the series on IGROV-1, 0.0014 µM with EBC-1 and 0.001 µM in the series on OVCAR-3. Also, the equilibrium dissociation constant (Kd) in [1] came out at 0.36 µM. Besides, in series [2], the half-life at 1 µM was found to be 5.5 h. In addition, the Tm with Clupeidae turned out to be 102 °C. In series [3], this molecule gave a Retention_time of 21.6 min. Besides, the remaining at 24 h in [6] is less than 5%.
In the case of `CC(C)[C@H]1C(=O)NC[C@@H](NC(=O)c2nc3ccccc3cc2O)C(=O)N2CCCC[C@H]2C(=O)NCC(=O)N(C)CC(=O)N2CCCCC[C@H]2C(=O)NC[C@@H](NC(=O)c2nc3ccccc3cc2O)C(=O)N2CCCC[C@H]2C(=O)NCC(=O)N(C)CC(=O)N1C`, the Kd in series [1] worked out at 0.7 µM. In addition, the Tm in the series on Clupeidae was 88 °C. This molecule also came in with a Retention_time in [3] of 16.4 min.
On to `CC(C)[C@H]1C(=O)NC[C@@H](NC(=O)c2nc3ccccc3cc2O)C(=O)N2CCCC[C@H]2C(=O)NCC(=O)N(C)CC(=O)N(C)[C@@H](C2CCCCC2)C(=O)NC[C@@H](NC(=O)c2nc3ccccc3cc2O)C(=O)N2CCCC[C@H]2C(=O)NCC(=O)N(C)CC(=O)N1C`, for which the dissociation constant (Kd) in series [1] was 0.4 µM. For the same molecule, the Tm in the series with Clupeidae amounted to 86 °C. Moreover, the Retention_time in [3] was 18.9 min.
